This is an account of results in US12419892B2, “Pharmaceutical compositions comprising nilotinib” (XSPRAY PHARMA AB, priority 2023, dated 2025).

The conditions of data set [1]: cited from earlier work.
The conditions of data set [2]: literature (Li, Singamsetti, Puppala); cited from earlier work.
Data set [3] can be described thus: Genotoxicity classification of Nilotinib impurity A. The settings on record: not disclosed. An excerpt: Regulatory agencies, such as the FDA and the European Medicines Agency (EMA), have specific guidelines and regulations for assessing and managing the risks associated with genotoxic compounds, particularly in the context of pharmaceuticals and chemical safety.

Take `O=C1O[C@H]([C@@H](O)CO)C(O)=C1O` [Ascorbic acid, ascorbic acid]: in data set [1], the pKa result was “about 4.2”. As to `Cc1cn(-c2cc(N)cc(C(F)(F)F)c2)cn1` [Nilotinib impurity A, 3-(4-methylimidazol-1-yl)-5-(trifluoromethyl) aniline], the genotoxicity classification result in data set [2] is “potentially genotoxic or mutagenic”. Moreover, the “genotoxicity, internal evaluations” value in data set [3] is reported as “may not be genotoxic”.
